Results taken from the NIST ThermoML archive (doi:10.1021/je050509f).

Assay: mn = molality of the nth substance listed, in mol/kg
Settings: Liquid, Vibrating tube method

[Cl-].[Cl-].[Zn+2] [zinc chloride] + CO
Settings | mass density [kg/m3]
348.27 K, 19998 kPa, m1 = 0.1348 | 775.25
348.27 K, 20001 kPa, m1 = 5.367 | 1160.36
348.27 K, 20003 kPa, m1 = 1.039 | 851.34
348.27 K, 24987 kPa, m1 = 1.977 | 930.28
348.27 K, 24989 kPa, m1 = 0.8018 | 837.48
348.27 K, 24994 kPa, m1 = 0.1348 | 780.25
348.27 K, 24994 kPa, m1 = 1.039 | 856.19
348.27 K, 24996 kPa, m1 = 0.4768 | 810.44
348.27 K, 25001 kPa, m1 = 5.367 | 1164.74
348.27 K, 29985 kPa, m1 = 0.4768 | 815.14
348.27 K, 29987 kPa, m1 = 0.8018 | 842.17
348.27 K, 29990 kPa, m1 = 1.977 | 934.86
348.27 K, 29998 kPa, m1 = 0.1348 | 785.01
348.27 K, 30011 kPa, m1 = 5.367 | 1169.01
348.27 K, 30014 kPa, m1 = 1.039 | 860.81
348.27 K, 34985 kPa, m1 = 1.977 | 939.27
348.27 K, 34987 kPa, m1 = 0.4768 | 819.64
348.27 K, 34988 kPa, m1 = 0.8018 | 846.66
348.27 K, 34990 kPa, m1 = 1.039 | 865.23
348.27 K, 34990 kPa, m1 = 5.367 | 1173.15
348.27 K, 34998 kPa, m1 = 0.1348 | 789.52
348.27 K, 39984 kPa, m1 = 5.367 | 1177.19
348.27 K, 39991 kPa, m1 = 1.039 | 869.48
348.27 K, 39993 kPa, m1 = 1.977 | 943.53
348.27 K, 39998 kPa, m1 = 0.1348 | 793.81
348.27 K, 39999 kPa, m1 = 0.8018 | 850.97
348.27 K, 40007 kPa, m1 = 0.4768 | 823.94
373.3 K, 523 kPa, m1 = 0.8018 | 783.25
373.3 K, 527 kPa, m1 = 0.4768 | 755.9
373.3 K, 527 kPa, m1 = 1.977 | 876.84
373.3 K, 533 kPa, m1 = 0.1348 | 725.48
373.3 K, 535 kPa, m1 = 5.367 | 1112.11
373.3 K, 536 kPa, m1 = 1.039 | 802.51
373.3 K, 4986 kPa, m1 = 5.367 | 1117.02
373.3 K, 4988 kPa, m1 = 1.039 | 808.88
373.3 K, 4990 kPa, m1 = 0.4768 | 762.64
373.3 K, 4994 kPa, m1 = 0.8018 | 789.83
373.3 K, 4995 kPa, m1 = 0.1348 | 732.41
373.3 K, 5003 kPa, m1 = 1.977 | 882.85
373.3 K, 9984 kPa, m1 = 0.4768 | 769.58
373.3 K, 9984 kPa, m1 = 0.8018 | 796.61
373.3 K, 9985 kPa, m1 = 0.1348 | 739.51
373.3 K, 9986 kPa, m1 = 1.977 | 889.12
373.3 K, 9995 kPa, m1 = 1.039 | 815.55
373.3 K, 10002 kPa, m1 = 5.367 | 1122.33
373.3 K, 14985 kPa, m1 = 0.4768 | 776
373.3 K, 14990 kPa, m1 = 5.367 | 1127.43
373.3 K, 15001 kPa, m1 = 0.1348 | 746.08
373.3 K, 15005 kPa, m1 = 0.8018 | 802.94
373.3 K, 15009 kPa, m1 = 1.039 | 821.76
373.3 K, 15009 kPa, m1 = 1.977 | 895.06
373.3 K, 19986 kPa, m1 = 0.1348 | 752.14
373.3 K, 19987 kPa, m1 = 0.4768 | 781.98
373.3 K, 20001 kPa, m1 = 1.039 | 827.53
373.3 K, 20005 kPa, m1 = 0.8018 | 808.85
373.3 K, 20008 kPa, m1 = 5.367 | 1132.37
373.3 K, 20012 kPa, m1 = 1.977 | 900.64
373.3 K, 24985 kPa, m1 = 0.4768 | 787.59
373.3 K, 24989 kPa, m1 = 1.039 | 832.97
373.3 K, 24990 kPa, m1 = 0.8018 | 814.38
373.3 K, 24992 kPa, m1 = 0.1348 | 757.83
373.3 K, 25001 kPa, m1 = 1.977 | 905.94
373.3 K, 25001 kPa, m1 = 5.367 | 1137.12
373.3 K, 29985 kPa, m1 = 0.1348 | 763.18
373.3 K, 29988 kPa, m1 = 1.977 | 910.98
373.3 K, 29993 kPa, m1 = 1.039 | 838.14
373.3 K, 29994 kPa, m1 = 5.367 | 1141.72
373.3 K, 29997 kPa, m1 = 0.8018 | 819.65
373.3 K, 30012 kPa, m1 = 0.4768 | 792.89
373.3 K, 34983 kPa, m1 = 0.8018 | 824.61
373.3 K, 34984 kPa, m1 = 1.039 | 843.03
373.3 K, 34986 kPa, m1 = 5.367 | 1146.17
373.3 K, 34987 kPa, m1 = 0.4768 | 797.89
373.3 K, 34997 kPa, m1 = 1.977 | 915.82
373.3 K, 35008 kPa, m1 = 0.1348 | 768.23
373.3 K, 39990 kPa, m1 = 1.039 | 847.71
373.3 K, 39991 kPa, m1 = 0.8018 | 829.37
373.3 K, 39993 kPa, m1 = 0.1348 | 773.04
373.3 K, 39995 kPa, m1 = 5.367 | 1150.53
373.3 K, 39997 kPa, m1 = 1.977 | 920.45
373.3 K, 40000 kPa, m1 = 0.4768 | 802.68
398.33 K, 893 kPa, m1 = 0.1348 | 695.88
398.33 K, 899 kPa, m1 = 5.367 | 1083.75
398.33 K, 904 kPa, m1 = 1.039 | 773.5
398.33 K, 905 kPa, m1 = 1.977 | 848.36
398.33 K, 907 kPa, m1 = 0.8018 | 754.11
398.33 K, 908 kPa, m1 = 0.4768 | 726.55
398.33 K, 4981 kPa, m1 = 0.4768 | 734.09
398.33 K, 4985 kPa, m1 = 1.977 | 854.8
398.33 K, 4988 kPa, m1 = 0.8018 | 761.4
398.33 K, 4994 kPa, m1 = 0.1348 | 703.77
398.33 K, 5002 kPa, m1 = 5.367 | 1088.78
398.33 K, 5004 kPa, m1 = 1.039 | 780.59
398.33 K, 9983 kPa, m1 = 0.4768 | 742.44
398.33 K, 9984 kPa, m1 = 0.1348 | 712.39
398.33 K, 9984 kPa, m1 = 0.8018 | 769.52
398.33 K, 9988 kPa, m1 = 5.367 | 1094.64
398.33 K, 9993 kPa, m1 = 1.039 | 788.48
398.33 K, 9999 kPa, m1 = 1.977 | 862.15
398.33 K, 14985 kPa, m1 = 1.039 | 795.7
398.33 K, 14988 kPa, m1 = 0.1348 | 720.18
398.33 K, 14993 kPa, m1 = 0.4768 | 750.05
398.33 K, 14994 kPa, m1 = 0.8018 | 776.95
398.33 K, 15018 kPa, m1 = 5.367 | 1100.25
398.33 K, 15019 kPa, m1 = 1.977 | 868.94
398.33 K, 19982 kPa, m1 = 0.8018 | 783.77
398.33 K, 19982 kPa, m1 = 1.039 | 802.38
398.33 K, 19984 kPa, m1 = 0.1348 | 727.3
398.33 K, 19994 kPa, m1 = 0.4768 | 757.02
398.33 K, 19996 kPa, m1 = 1.977 | 875.28
398.33 K, 20003 kPa, m1 = 5.367 | 1105.62
398.33 K, 24984 kPa, m1 = 1.039 | 808.61
398.33 K, 24989 kPa, m1 = 5.367 | 1110.77
398.33 K, 24992 kPa, m1 = 0.4768 | 763.47
398.33 K, 25003 kPa, m1 = 0.1348 | 733.89
398.33 K, 25006 kPa, m1 = 0.8018 | 790.16
398.33 K, 25009 kPa, m1 = 1.977 | 881.23
398.33 K, 29990 kPa, m1 = 1.977 | 886.89
398.33 K, 29994 kPa, m1 = 0.8018 | 796.1
398.33 K, 29996 kPa, m1 = 0.1348 | 740.01
398.33 K, 29996 kPa, m1 = 1.039 | 814.47
398.33 K, 29999 kPa, m1 = 5.367 | 1115.75
398.33 K, 30005 kPa, m1 = 0.4768 | 769.51
398.33 K, 34992 kPa, m1 = 0.4768 | 775.14
398.33 K, 34993 kPa, m1 = 0.1348 | 745.75
398.33 K, 35003 kPa, m1 = 5.367 | 1120.56
398.33 K, 35010 kPa, m1 = 1.039 | 819.97
398.33 K, 35011 kPa, m1 = 0.8018 | 801.72
398.33 K, 35014 kPa, m1 = 1.977 | 892.27
398.33 K, 39988 kPa, m1 = 1.977 | 897.37
398.33 K, 39989 kPa, m1 = 0.1348 | 751.12
398.33 K, 39992 kPa, m1 = 0.8018 | 807.01
398.33 K, 39994 kPa, m1 = 5.367 | 1125.22
398.33 K, 39997 kPa, m1 = 1.039 | 825.19
398.33 K, 40002 kPa, m1 = 0.4768 | 780.53
